Measurements published in patent US11267824B2, “Inhibitors of indoleamine 2,3-dioxygenase and/or tryptophan 2,3-dioxygenase” (IDORSIA PHARMACEUTICALS LTD, priority 2017, dated 2022).

Assays:
[1] = molecular target: Recombinant full-length human IDO1 (Homo sapiens (Human), UniProt P14902); assay: IDO1 enzymatic assay (IDO inhibitory activity); assay type: biochemical; conditions: 2 nM enzyme, 5 μM L-tryptophan, pH6.5, 30 min pre-incubation, NFK quantified by LCMS; mean values if measured multiple times; read-out: hIDO activity (IC50 in nM)
Procedure: 1) Testing Compounds for IDO Inhibitory Activity in an IDO1 Enzymatic Assay:
Recombinant full-length human IDO1 with a N-terminal hexahistidine tag expressed in E. coli and purified to homogeneity is incubated at a final concentration of 2 nM in assay buffer consisting of 37.5 mM phosphate buffer at pH6.5 supplemented with 10 mM sodium L-ascorbate, 0.45 μM methylene blue, 50 U/ml catalase, 0.01% BSA, and 0.01% Tween 20 (protocol modified from Seegers et al, JBS 2014). Example compounds are serially diluted in DMSO, further diluted in phosphate buffer, and added to the enzyme at final concentrations ranging from 10 μM to 0.5 nM. The final DMSO concentration is 0.6%. Following a pre-incubation of 30 minutes at RT, the reaction is started by the addition of L-tryptophan at a final concentration of 5 μM in assay buffer. After 30 minutes of incubation at RT, 3 μL of the reaction mixture are transferred to a 384 deep well plate containing 25 μL of deionized water. 100 μl of 200 nM L-Tryptophan-(indole-d5) in cold 100% methanol are added followed by a 10 minutes centrifugation at 4,000 rpm at 4° C. An additional 75 μL of deionized water are then added and followed by a 10 minutes centrifugation at 4,000 rpm at 4° C. The product of the reaction N′-Formylkynurenine (NFK) is quantified by LCMS and normalized to the L-Tryptophan-(indole-d5) signal. Samples with 0.6% DMSO (0% effect) and a TDO/IDO inhibitor (100% effect) are used as control samples to set the parameters for the non-linear regression necessary for the determination of the half-maximal inhibitory concentration (IC50) for each compound. For each compound concentration the percentage of activity compared to 0% and 100% effect is calculated as average ±STDEV (each concentration measured in duplicate). IC50 values and curves are generated with XLfit software (IDBS) using Dose-Response One Site model 203 (four parameter logistic curve model). When compounds are measured multiple times, mean values are given.

[2] = molecular target: Recombinant human TDO comprising amino acids 19-407 (Homo sapiens (Human), UniProt P48775); assay: TDO2 enzymatic assay (TDO inhibitory activity); assay type: biochemical; conditions: 15 nM enzyme, 200 μM L-tryptophan, pH7, 30 min pre-incubation, NFK quantified by LCMS; mean values if measured multiple times; read-out: hTDO activity (IC50 in nM)
Procedure: 2) Testing Compounds for TDO Inhibitory Activity in a TDO2 Enzymatic Assay:
Recombinant human TDO comprising amino acids 19-407 with a N-terminal hexahistidine tag expressed in E. coli and purified to homogeneity is incubated at a final concentration of 15 nM in assay buffer consisting of 75 mM phosphate buffer at pH7 supplemented with 100 μM ascorbic acid, 50 U/ml Catalase, 0.01% BSA, and 0.01% Tween 20 (protocol modified from Seegers et al, JBS 2014). Example compounds are serially diluted in DMSO, further diluted in phosphate buffer, and added to the reaction mixture at final concentrations ranging from 10 μM to 0.5 nM. The final DMSO concentration is 0.6%. Following a pre-incubation of 30 minutes at RT, the reaction is started by the addition of L-tryptophan at a final concentration of 200 μM in assay buffer. After 30 minutes of incubation at RT, 3 μL of the reaction mixture are transferred to a 384 deep well plate containing 25 μL of deionized water. 100 μl of 200 nM L-Tryptophan-(indole-d5) in cold 100% methanol are added followed by a 10 minutes centrifugation at 4,000 rpm at 4° C. An additional 75 μL of deionized water are then added and followed by a 10 minutes centrifugation at 4,000 rpm at 4° C. The product of the reaction N′-Formylkynurenine (NFK) is quantified by LCMS and normalized to the L-Tryptophan-(indole-d5) signal. Samples with 0.6% DMSO (0% effect) and a TDO/IDO inhibitor (100% effect) are used as control samples to set the parameters for the non-linear regression necessary for the determination of the half-maximal inhibitory concentration (IC50) for each compound. For each compound concentration the percentage of activity compared to 0% and 100% effect is calculated as average±STDEV (each concentration measured in duplicate). IC50 values and curves are generated with XLfit software (IDBS) using Dose-Response One Site model 203 (four parameter logistic curve model). When compounds are measured multiple times, mean values are given.

Recombinant human TDO comprising amino acids 19-407, sequence (P48775 19-406 limits assumed): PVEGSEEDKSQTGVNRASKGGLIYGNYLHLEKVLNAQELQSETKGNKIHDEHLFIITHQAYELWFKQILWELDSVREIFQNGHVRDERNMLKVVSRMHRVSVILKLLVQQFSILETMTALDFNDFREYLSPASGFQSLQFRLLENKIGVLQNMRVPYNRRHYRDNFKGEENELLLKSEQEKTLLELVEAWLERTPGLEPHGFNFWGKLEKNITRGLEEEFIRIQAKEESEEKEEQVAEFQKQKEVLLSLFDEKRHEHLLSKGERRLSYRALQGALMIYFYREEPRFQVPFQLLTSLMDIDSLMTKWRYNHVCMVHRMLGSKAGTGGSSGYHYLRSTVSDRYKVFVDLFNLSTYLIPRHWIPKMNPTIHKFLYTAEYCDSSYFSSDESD
Recombinant full-length human IDO1, sequence (P14902 whole entry): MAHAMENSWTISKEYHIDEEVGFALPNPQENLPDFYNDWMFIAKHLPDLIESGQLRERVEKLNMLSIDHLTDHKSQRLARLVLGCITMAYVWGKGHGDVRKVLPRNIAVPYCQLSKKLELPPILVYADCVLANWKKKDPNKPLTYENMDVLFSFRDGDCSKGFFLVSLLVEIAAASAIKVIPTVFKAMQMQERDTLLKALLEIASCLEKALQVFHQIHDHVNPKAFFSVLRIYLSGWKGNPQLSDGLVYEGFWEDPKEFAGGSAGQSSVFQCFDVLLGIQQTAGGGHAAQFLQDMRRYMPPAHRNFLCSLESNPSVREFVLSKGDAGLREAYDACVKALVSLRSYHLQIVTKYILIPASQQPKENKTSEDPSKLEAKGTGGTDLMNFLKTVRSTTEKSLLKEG

SMILES | IC50 [1] [nM] | IC50 [2] [nM]
OC(CC1CCC(C2CCC2)CC1)c1c(C2CC2)sc2cncn12 (racemic) [Example 87, rac-2-(4-Cyclobutyl-cyclohexyl)-1-(2-cyclopropyl-imidazo[5,1-b]thiazol-3-yl)-ethanol] | 820 | 3100
OC(c1c(-c2ccccc2)sc2cncn12)C1CCCCC1 (racemic) [Example 92, rac-Cyclohexyl-(2-phenyl-imidazo[5,1-b]thiazol-3-yl)-methanol] | 382 | 246
OC(CC1CCCCC1)c1c(-c2ccccc2)sc2cncn12 (racemic) [Example 93, rac-2-Cyclohexyl-1-(2-phenyl-imidazo[5,1-b]thiazol-3-yl)-ethanol] | 296 | 496
OC(c1c(-c2ccsc2)sc2cncn12)C1CCCCC1 (racemic) [Example 94, rac-Cyclohexyl-(2-thiophen-3-yl-imidazo[5,1-b]thiazol-3-yl)-methanol] | 144 | 181
OC(CC1CCCCC1)c1c(-c2ccsc2)sc2cncn12 (racemic) [Example 95, rac-2-Cyclohexyl-1-(2-thiophen-3-yl-imidazo[5,1-b]thiazol-3-yl)-ethanol] | 313 | 386
CC(C)Cc1sc2cncn2c1C(O)CC1CCCCC1 (racemic) [Example 99, rac-2-Cyclohexyl-1-(2-isobutyl-imidazo[5,1-b]thiazol-3-yl)-ethanol] | 837 | 1070
CCc1sc2cncn2c1C(O)CC1CCCCC1 (racemic) [Example 100, rac-2-Cyclohexyl-1-(2-ethyl-imidazo[5,1-b]thiazol-3-yl)-ethanol] | 6.63 | 299
CC1(C(O)c2c(C3CC3)sc3cncn23)CCCCC1 (racemic) [Example 105, rac-(2-Cyclopropyl-imidazo[5,1-b]thiazol-3-yl)-(1-methyl-cyclohexyl)-methanol] | 10.6 | 104
Cc1sc2cncn2c1C(O)C1CC(C)(C)C1 (racemic) [Example 109, rac-(3,3-Dimethyl-cyclobutyl)-(2-methyl-imidazo[5,1-b]thiazol-3-yl)-methanol] | 13.6 | 190
OC(c1c(-c2cccnc2)sc2cncn12)C1CCCCC1 (racemic) [Example 124, rac-Cyclohexyl-(2-pyridin-3-yl-imidazo[5,1-b]thiazol-3-yl)-methanol] | 342 | 881
Cn1cc(-c2sc3cncn3c2C(O)C2CCCCC2)cn1 (racemic) [Example 125, rac-Cyclohexyl-[2-(1-methyl-1H-pyrazol-4-yl)-imidazo[5,1-b]thiazol-3-yl]-methanol] | 209 | > 10200
Cc1ccc(-c2sc3cncn3c2C(O)C2CCCCC2)cc1 (racemic) [Example 126, rac-Cyclohexyl-(2-p-tolyl-imidazo[5,1-b]thiazol-3-yl)-methanol] | 3100 | 1010
COc1ccc(-c2sc3cncn3c2C(O)C2CCCCC2)cc1 (racemic) [Example 127, rac-Cyclohexyl-[2-(4-methoxy-phenyl)-imidazo[5,1-b]thiazol-3-yl]-methanol] | 3090 | 1990
CCCc1sc2cncn2c1C(O)CC1CCCCC1 (racemic) [Example 129, rac-2-Cyclohexyl-1-(2-propyl-imidazo[5,1-b]thiazol-3-yl)-ethanol] | 36.8 | 595
OC(CC1CCC(C2CCCC2)CC1)c1c(C2CC2)sc2cncn12 (racemic) [Example 134, rac-2-(4-Cyclopentyl-cyclohexyl)-1-(2-cyclopropyl-imidazo[5,1-b]thiazol-3-yl)-ethanol] | 757 | 2800

Other lines, results leading:

IC50 [1] [nM] | IC50 [2] [nM] | SMILES
511 | 2830 | CC(C)C1CCC(CC(O)c2c(C3CC3)sc3cncn23)CC1 (racemic) [Example 85, rac-1-(2-Cyclopropyl-imidazo[5,1-b]thiazol-3-yl)-2-(4-isopropyl-cyclohexyl)-ethanol]
511 | 2780 | CC(C)(C)C1CCC(C(O)c2c(C3CC3)sc3cncn23)CC1 (racemic) [Example 86, rac-(4-tert-Butyl-cyclohexyl)-(2-cyclopropyl-imidazo[5,1-b]thiazol-3-yl)-methanol]
10.5 | 39.9 | CCc1sc2cncn2c1C(O)C1CCCCC1 (racemic) [Example 96, rac-Cyclohexyl-(2-ethyl-imidazo[5,1-b]thiazol-3-yl)-methanol]
435 | 583 | CC(C)Cc1sc2cncn2c1C(O)C1CCCCC1 (racemic) [Example 98, rac-Cyclohexyl-(2-isobutyl-imidazo[5,1-b]thiazol-3-yl)-methanol]
70.1 | 1780 | OC(c1c(C2CC2)sc2cncn12)C1CCC(C2CCC2)CC1 (racemic) [Example 103, rac-(4-Cyclobutyl-cyclohexyl)-(2-cyclopropyl-imidazo[5,1-b]thiazol-3-yl)-methanol]
9.81 | 912 | CC1(C)CC(C(O)c2c(C(F)(F)F)sc3cncn23)C1 (racemic) [Example 110, rac-(3,3-Dimethyl-cyclobutyl)-(2-trifluoromethyl-imidazo[5,1-b]thiazol-3-yl)-methanol]
101 | 2430 | OC(CC1CCCC1)c1c(C(F)(F)F)sc2cncn12 (racemic) [Example 111, rac-2-Cyclopentyl-1-(2-trifluoromethyl-imidazo[5,1-b]thiazol-3-yl)-ethanol]
149 | 206 | Cc1sc2cncn2c1C(O)C1CCCC1 (racemic) [Example 113, rac-Cyclopentyl-(2-methyl-imidazo[5,1-b]thiazol-3-yl)-methanol]
84.1 | 1960 | CC1CCC(C(O)c2c(C(F)(F)F)sc3cncn23)CC1 (racemic) [Example 115, rac-(4-Methyl-cyclohexyl)-(2-trifluoromethyl-imidazo[5,1-b]thiazol-3-yl)-methanol]
447 | 7280 | CC1(C)CCC(CC(O)c2c(C(F)(F)F)sc3cncn23)CC1 (racemic) [Example 118, rac-2-(4,4-Dimethyl-cyclohexyl)-1-(2-trifluoromethyl-imidazo[5,1-b]thiazol-3-yl)-ethanol]
49.5 | 153 | CCCc1sc2cncn2c1C(O)C1CCCCC1 (racemic) [Example 130, rac-Cyclohexyl-(2-propyl-imidazo[5,1-b]thiazol-3-yl)-methanol]
11.3 | 1330 | COC1CCC(CC(O)c2c(C3CC3)sc3cncn23)CC1 (racemic) [Example 131, rac-1-(2-Cyclopropyl-imidazo[5,1-b]thiazol-3-yl)-2-(4-methoxy-cyclohexyl)-ethanol]
44.3 | 591 | OC(c1c(C(F)(F)F)sc2cncn12)C1CCCC1 (racemic) [Example 132, rac-Cyclopentyl-(2-trifluoromethyl-imidazo[5,1-b]thiazol-3-yl)-methanol]
